Values quoted from earlier work in patent publication US9730930B2, “Treatment for vitiligo” (Rigel Pharmaceuticals, Inc., priority 2012, dated 2017).

Tested on: other cytokine (IL-1β and TNFα) signaling

C#CCOc1ccc(Nc2nc(Nc3ccc(C)c(S(N)(=O)=O)c3)ncc2F)cc1 [Compound I, N2-(3-aminosulfonyl-4-methylphenyl)-5-fluoro-N4-[4-(prop-2-ynyloxy)phenyl]-2,4-pyrimidinediamine]
activity on other cytokine (IL-1β and TNFα) signaling: little or no activity
